Assay [1] concerns sAPPβ levels in H4 human neuroglioma cells over-expressing the wild-type human APP695. In words: Whole Cell Assay (In Vitro sAPPβ Assay), TMB-ELISA. It is filed as cell-based. The note with it: 18 hours, geometric mean of 2-3 determinations, Examples 32-34 (footnote b) single determination. As for the experimental part:
Whole Cell Assay (In Vitro sAPPpβ Assay):
H4 human neuroglioma cells over-expressing the wild-type human APP695 are treated for 18 hours with compound in a final concentration 1% DMSO. sAPPβ levels are measured using TMB-ELISA with capture APP N-terminal antibody (Affinity BioReagents, OMA1-03132), wild-type sAPPβ specific reporter p192 (Elan), and tertiary anti rabbit-HRP (GE Healthcare).
(In an ELISA, binding on a coated surface is turned into a signal by an enzyme label.)

The target in another assay is BACE1 enzyme (Homo sapiens (Human), UniProt P56817). In words: BACE1 Cell-Free Assay (fluorescence polarization, cleavage of synthetic APP substrate). It is filed as biochemical. The note with it: geometric mean of 2-3 determinations; Examples 32-34 (footnote b) single determination. The source says: Beta-secretase (BACE) is one of the enzymes involved in the generation of the amyloid beta peptide found in the amyloid plaques of Alzheimer's Disease patients. This assay measures the inhibition of the beta-secretase enzyme as it cleaves a non-native peptide.
Chain of BACE1 enzyme (P56817 46-457): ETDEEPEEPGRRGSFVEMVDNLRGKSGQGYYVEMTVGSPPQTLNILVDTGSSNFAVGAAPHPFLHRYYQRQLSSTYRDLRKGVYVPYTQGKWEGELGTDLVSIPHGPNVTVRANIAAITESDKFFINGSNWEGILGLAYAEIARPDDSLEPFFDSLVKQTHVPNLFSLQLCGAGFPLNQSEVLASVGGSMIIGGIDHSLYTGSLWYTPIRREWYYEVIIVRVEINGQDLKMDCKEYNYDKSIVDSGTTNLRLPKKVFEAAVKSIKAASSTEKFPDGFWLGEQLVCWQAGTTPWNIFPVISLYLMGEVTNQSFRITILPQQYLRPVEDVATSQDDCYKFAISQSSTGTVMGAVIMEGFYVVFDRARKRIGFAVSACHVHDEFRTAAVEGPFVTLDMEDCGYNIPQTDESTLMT
A synthetic APP substrate that can be cleaved by beta-secretase having N-terminal biotin and made fluorescent by the covalent attachment of Oregon Green at the Cys residue is used to assay beta-secretase activity in the presence or absence of the inhibitory compounds. The substrate is Biotin-GLTNIKTEEISEISY^EVEFR-C[Oregon Green]KK-OH. The BACE1 enzyme is affinity purified material from conditioned media of CHO-K1 cells that have been transfected with a soluble BACE construct (BACE1deltaTM96His). Compounds are incubated in a log dose response curve from a top concentration of 100 μM with BACE1 enzyme and the biotinylated fluorescent peptide in 384-well black plates (Thermo Scientific #4318). BACE1 is at a final concentration of 0.1 nM with a final concentration of peptide substrate of 150 nM in a reaction volume of 30 μL assay buffer [100 mM sodium acetate, pH 4.5 (brought to pH with acetic acid), and 0.001% Tween-20]. Plates are covered and incubated for 3 hours at 37° C. The reaction is stopped with the addition of 30 μL of 1.5 μM Streptavidin (Pierce, #21125). After a 10 minute incubation at room temperature, plates are read on a PerkinElmer EnVision for fluorescence polarization (Ex485 nm/Em530 nm). The activity of the beta-secretase enzyme is detected by changes in the fluorescence polarization that occur when the substrate is cleaved by the enzyme.
Background: Fluorescence polarisation rises when a labelled molecule tumbles more slowly, as on binding a larger partner.

Experimental findings from patent US9233981B1, “Substituted phenyl hexahydropyrano[3,4-d][1,3]thiazin-2-amine compounds” (Pfizer Inc., priority 2013, dated 2016) are described below.

Broadly, the IC50 is the concentration that gives 50% inhibition. Lower therefore signals inhibition by little substance.

In the case of `NC1=N[C@@]2(c3ccc(F)cc3F)CO[C@@H](c3ccc4c(c3)CCO4)C[C@H]2CS1` [Example 26, (4aR,6R,8aS)-8a-(2,4-difluorophenyl)-6-(2,3-dihydro-1-benzofuran-5-yl)-4,4a,5,6,8,8a-hexahydropyrano[3,4-d][1,3]thiazin-2-amine], the IC50 amounted to 0.005 nM in assay [1] and 6 nM at BACE1 enzyme. For `Cc1cc(F)cc([C@H]2C[C@H]3CSC(N)=N[C@@]3(c3ccc(F)cc3F)CO2)c1` [Example 10, (4aR,6R,8aS)-8a-(2,4-difluorophenyl)-6-(3-fluoro-5-methylphenyl)-4,4a,5,6,8,8a-hexahydropyrano[3,4-d][1,3]thiazin-2-amine] the same measures were 0.038 nM and 16 nM.

For the compound `C[C@H]1SC(N)=N[C@@]2(c3ccc(F)cc3F)CO[C@@H](c3ccc(F)cc3)C[C@@H]12` [Example 32, (4R,4aR,6R,8aS)-8a-(2,4-Difluorophenyl)-6-(4-fluorophenyl)-4-methyl-4,4a,5,6,8,8a-hexahydropyrano[3,4-d][1,3]thiazin-2-amine], the IC50 in assay [1] was 0.004 nM; on BACE1 enzyme, 15 nM. For `NC1=N[C@@]2(c3ccc(F)cc3F)CO[C@@H](c3ccc(F)c(F)c3)C[C@H]2CS1` [Example 5, (4aR,6R,8aS)-8a-(2,4-difluorophenyl)-6-(3,4-difluorophenyl)-4,4a,5,6,8,8a-hexahydropyrano[3,4-d][1,3]thiazin-2-amine] the same measures were 0.007 nM and 10 nM. On the same counts, the results for `Cc1cc([C@H]2C[C@H]3CSC(N)=N[C@@]3(c3ccc(F)cc3F)CO2)ccc1F` [Example 8, (4aR,6R,8aS)-8a-(2,4-difluorophenyl)-6-(4-fluoro-3-methylphenyl)-4,4a,5,6,8,8a-hexahydropyrano[3,4-d][1,3]thiazin-2-amine] are 0.008 nM and 6 nM. In assay [1], `NC1=N[C@@]2(c3ccc(F)cc3F)CO[C@@H](c3ccc(C(F)(F)F)cc3)C[C@H]2CS1` [Example 14, (4aR,6R,8aS)-8a-(2,4-difluorophenyl)-6-[4-(trifluoromethyl)phenyl]-4,4a,5,6,8,8a-hexahydropyrano[3,4-d][1,3]thiazin-2-amine] yielded an IC50 of 0.176 nM. For `C[C@H]1SC(N)=N[C@@]2(c3ccc(F)cc3F)CO[C@@H](c3ccc(C#N)cc3)C[C@@H]12` [Example 33, (4R,4aR,6R,8aS)-8a-(2,4-Difluorophenyl)-6-(4-cyanophenyl)-4-methyl-4,4a,5,6,8,8a-hexahydropyrano[3,4-d][1,3]thiazin-2-amine], the values for the IC50 (in assay [1]; against BACE1 enzyme) were 0.006 nM and 11 nM, respectively. On the same counts, the results for `COc1ccc([C@H]2C[C@H]3CSC(N)=N[C@@]3(c3ccc(F)cc3F)CO2)cc1` [Example 16, (4aR,6R,8aS)-8a-(2,4-difluorophenyl)-6-(4-methoxyphenyl)-4,4a,5,6,8,8a-hexahydropyrano[3,4-d][1,3]thiazin-2-amine] are 0.018 nM and 29 nM.

With `NC1=N[C@@]2(c3ccc(F)cc3F)CO[C@@H](c3ccc(F)cc3)C[C@H]2CS1` [Example 1, (4aR,6R,8aS)-8a-(2,4-difluorophenyl)-6-(4-fluorophenyl)-4,4a,5,6,8,8a-hexahydropyrano[3,4-d][1,3]thiazin-2-amine], the IC50 in assay [1] was 0.006 nM; against BACE1 enzyme, 14 nM.

With `COc1ccccc1[C@H]1C[C@H]2CSC(N)=N[C@@]2(c2ccc(F)cc2F)CO1` [Example 17, (4aR,6R,8aS)-8a-(2,4-difluorophenyl)-6-(2-methoxyphenyl)-4,4a,5,6,8,8a-hexahydropyrano[3,4-d][1,3]thiazin-2-amine], the figures for the IC50 (in assay [1]; against BACE1 enzyme) were 0.691 nM and 2210 nM, respectively. For `COc1cc([C@H]2C[C@H]3CSC(N)=N[C@@]3(c3ccc(F)cc3F)CO2)ccc1F` [Example 18, (4aR,6R,8aS)-8a-(2,4-difluorophenyl)-6-(4-fluoro-3-methoxyphenyl)-4,4a,5,6,8,8a-hexahydropyrano[3,4-d][1,3]thiazin-2-amine] the same measures were 0.095 nM and 214 nM.
